What follows are molecules tested against T1, HMG-CoA reductase (Homo sapiens, UniProt P04035) (assay: HMG-CoA reductase (HMGCR) degradation in HepG2 cells by western blotting). Settings: treated for 18 hours, ratio of HMG-CoA reductase to GAPDH, read-out: DC50.
T1 construct: endogenous in cells; host or cells: HepG2 (Korea Cell Line Bank)
T1 sequence (P04035 1-888): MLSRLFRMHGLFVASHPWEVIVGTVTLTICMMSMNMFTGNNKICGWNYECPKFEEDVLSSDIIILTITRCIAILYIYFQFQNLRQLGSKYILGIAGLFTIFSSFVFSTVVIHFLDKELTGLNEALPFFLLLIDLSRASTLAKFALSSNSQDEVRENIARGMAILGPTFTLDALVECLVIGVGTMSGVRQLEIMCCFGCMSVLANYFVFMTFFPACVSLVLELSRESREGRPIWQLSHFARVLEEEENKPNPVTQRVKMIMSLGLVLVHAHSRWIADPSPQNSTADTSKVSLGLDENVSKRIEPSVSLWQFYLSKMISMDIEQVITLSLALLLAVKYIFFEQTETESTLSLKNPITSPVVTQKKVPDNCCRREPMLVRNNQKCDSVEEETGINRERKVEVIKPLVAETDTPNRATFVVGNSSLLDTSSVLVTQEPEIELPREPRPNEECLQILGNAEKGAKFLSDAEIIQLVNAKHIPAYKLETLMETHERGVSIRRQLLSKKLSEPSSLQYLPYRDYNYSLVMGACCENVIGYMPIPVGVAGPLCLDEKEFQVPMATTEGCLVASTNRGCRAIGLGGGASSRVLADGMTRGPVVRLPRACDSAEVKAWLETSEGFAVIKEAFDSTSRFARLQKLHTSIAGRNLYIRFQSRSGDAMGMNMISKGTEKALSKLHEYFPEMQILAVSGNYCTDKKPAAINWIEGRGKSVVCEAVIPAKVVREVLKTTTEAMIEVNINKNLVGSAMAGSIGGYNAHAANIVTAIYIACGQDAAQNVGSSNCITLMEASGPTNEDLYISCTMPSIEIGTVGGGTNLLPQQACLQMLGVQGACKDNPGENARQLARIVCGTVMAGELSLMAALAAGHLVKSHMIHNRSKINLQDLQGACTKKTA
Assay type: cell-based
Outline: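 HepG2 cells (passage P105–P110) treated 18 hours with compounds in 10-point three-fold dilutions from 3 μM. RIPA lysates (15 μg protein, BCA-quantified) run on SDS-PAGE and immunoblotted for HMGCR (1:500) with GAPDH (1:20000) as loading control, primary antibodies 16 hours at 4° C.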

Row | Structure (SMILES) | DC50
1 | C[C@H]1C=C2C=C[C@H](C)[C@H](CC[C@@H]3C[C@@H](O[Si](C)(C)C(C)(C)C)CC(=O)O3)[C@H]2[C@@H](OC(=O)NCCCn2cnc(CNc3cccc4c3C(=O)N(C3CCC(=O)NC3=O)C4=O)c2)C1 (stereo partly drawn) [Compound 102, (1S,3R,7S,8S,8aR)-8-(2-((2R,4R)-4-((tert-butyldimethylsilyl)oxy)-6-oxotetrahydro-2H-pyran-2-yl)ethyl)-3,7-dimethyl-1,2,3,7,8,8a-hexahydronaphthalen-1-yl (3-(4-(((2-(2,6-dioxopiperidin-3-yl)-1,3-dioxoisoindolin-4-yl)amino)methyl)-1H-imidazol-1-yl)propyl)carbamate] | < 50 nM
2 | Cc1ncsc1-c1ccc(CNC(=O)[C@@H]2C[C@@H](O)CN2C(=O)[C@@H](NC(=O)COCCOCCOCCOCCOCCNC(=O)O[C@H]2C[C@@H](C)C=C3C=C[C@H](C)[C@H](CC[C@@H]4C[C@@H](O[Si](C)(C)C(C)(C)C)CC(=O)O4)[C@H]32)C(C)(C)C)cc1 [Compound 22, (1S,3R,7S,8S,8aR)-8-(2-((2R,4R)-4-((tert-butyldimethylsilyl)oxy)-6-oxotetrahydro-2H-pyran-2-yl)ethyl)-3,7-dimethyl-1,2,3,7,8,8a-hexahydronaphthalen-1-yl ((S)-19-((2S,4R)-4-hydroxy-2-((4-(4-methylthiazol-5-yl)benzyl)carbamoyl)pyrrolidine-1-carbonyl)-20,20-dimethyl-17-oxo-3,6,9,12,15-pentaoxa-18-azahenicosyl)carbamate] | < 50 nM
3 | C[C@H]1C=C2C=C[C@H](C)[C@H](CC[C@@H]3C[C@@H](O[Si](C)(C)C(C)(C)C)CC(=O)O3)[C@H]2[C@@H](OC(=O)NCCCCOCCCCNc2cccc3c2C(=O)N(C2CCC(=O)NC2=O)C3=O)C1 (stereo partly drawn) [Compound 88, (1S,3R,7S,8S,8aR)-8-(2-((2R,4R)-4-((tert-butyldimethylsilyl)oxy)-6-oxotetrahydro-2H-pyran-2-yl)ethyl)-3,7-dimethyl-1,2,3,7,8,8a-hexahydronaphthalen-1-yl (4-(4-((2-(2,6-dioxopiperidin-3-yl)-1,3-dioxoisoindolin-4-yl)amino)butoxy)butyl)carbamate] | < 50 nM
4 | C[C@H]1C=C2C=C[C@H](C)[C@H](CC[C@@H]3C[C@@H](O)CC(=O)O3)[C@H]2[C@@H](OC(=O)NCCCCCCCCCNc2cccc3c2C(=O)N(C2CCC(=O)NC2=O)C3=O)C1 (stereo partly drawn) [Compound 62, (1S,3R,7S,8S,8aR)-8-(2-((2R,4R)-4-hydroxy-6-oxotetrahydro-2H-pyran-2-yl)ethyl)-3,7-dimethyl-1,2,3,7,8,8a-hexahydronaphthalen-1-yl (9-((2-(2,6-dioxopiperidin-3-yl)-1,3-dioxoisoindolin-4-yl)amino)nonyl)carbamate] | 50 to 500 nM
5 | C[C@H]1C=C2C=C[C@H](C)[C@H](CC[C@@H]3C[C@@H](O)CC(=O)O3)[C@H]2[C@@H](OC(=O)NCCOCCOCCNc2cccc3nnn(C4CCC(=O)NC4=O)c(=O)c23)C1 (stereo partly drawn) [Compound 156, (1S,3R,7S,8S,8aR)-8-(2-((2R,4R)-4-hydroxy-6-oxotetrahydro-2H-pyran-2-yl)ethyl)-3,7-dimethyl-1,2,3,7,8,8a-hexahydronaphthalen-1-yl (2-(2-(2-((3-(2,6-dioxopiperidin-3-yl)-4-oxo-3,4-dihydrobenzo[d][1,2,3]triazin-5-yl)amino)ethoxy)ethoxy)ethyl)carbamate] | < 50 nM
6 | C[C@H]1C=C2C=C[C@H](C)[C@H](CC[C@@H]3C[C@@H](O)CC(=O)O3)[C@H]2[C@@H](OC(=O)NCc2cccc(CNC(=O)COc3cccc4c3C(=O)N(C3CCC(=O)NC3=O)C4=O)c2)C1 (stereo partly drawn) [Compound 79, (1S,3R,7S,8S,8aR)-8-(2-((2R,4R)-4-hydroxy-6-oxotetrahydro-2H-pyran-2-yl)ethyl)-3,7-dimethyl-1,2,3,7,8,8a-hexahydronaphthalen-1-yl (3-((2-((2-(2,6-dioxopiperidin-3-yl)-1,3-dioxoisoindolin-4-yl)oxy)acetamido)methyl)benzyl)carbamate] | < 50 nM

More lines, now with the values ahead:

Row | DC50 | Structure (SMILES)
7 | < 50 nM | CO[C@H]1CC(=O)O[C@H](CC[C@@H]2[C@@H]3C(=C[C@H](C)C[C@@H]3OC(=O)NCCOCCOCCNc3cccc4c3C(=O)N(C3CCC(=O)NC3=O)C4=O)C=C[C@@H]2C)C1 (stereo partly drawn) [Compound 69, (1S,3R,7S,8S,8aR)-8-(2-((2R,4R)-4-methoxy-6-oxotetrahydro-2H-pyran-2-yl)ethyl)-3,7-dimethyl-1,2,3,7,8,8a-hexahydronaphthalen-1-yl (2-(2-(2-((2-(2,6-dioxopiperidin-3-yl)-1,3-dioxoisoindolin-4-yl)amino)ethoxy)ethoxy)ethyl)carbamate]
8 | < 50 nM | Cc1ncsc1-c1ccc(CNC(=O)[C@@H]2C[C@@H](O)CN2C(=O)[C@@H](NC(=O)COCCOCCNC(=O)O[C@H]2C[C@@H](C)C=C3C=C[C@H](C)[C@H](CC[C@@H]4C[C@@H](O[Si](C)(C)C(C)(C)C)CC(=O)O4)[C@H]32)C(C)(C)C)cc1 [Compound 19, (1S,3R,7S,8S,8aR)-8-(2-((2R,4R)-4-((tert-butyldimethylsilyl)oxy)-6-oxotetrahydro-2H-pyran-2-yl)ethyl)-3,7-dimethyl-1,2,3,7,8,8a-hexahydronaphthalen-1-yl (2-(2-(2-(((S)-1-((2S,4R)-4-hydroxy-2-((4-(4-methylthiazol-5-yl)benzyl)carbamoyl)pyrrolidin-1-yl)-3,3-dimethyl-1-oxobutan-2-yl)amino)-2-oxoethoxy)ethoxy)ethyl)carbamate]
9 | < 50 nM | Cc1ncsc1-c1ccc(CNC(=O)[C@@H]2C[C@@H](O)CN2C(=O)[C@@H](NC(=O)C2(F)CC2)C(C)(C)C)c(OCCOCCOCCOCCNC(=O)O[C@H]2C[C@@H](C)C=C3C=C[C@H](C)[C@H](CC[C@@H]4C[C@@H](O)CC(=O)O4)[C@H]32)c1 [Compound 25, (1S,3R,7S,8S,8aR)-8-(2-((2R,4R)-4-hydroxy-6-oxotetrahydro-2H-pyran-2-yl)ethyl)-3,7-dimethyl-1,2,3,7,8,8a-hexahydronaphthalen-1-yl (2-(2-(2-(2-(2-(((2S,4R)-1-((S)-2-(1-fluorocyclopropane-1-carboxamido)-3,3-dimethylbutanoyl)-4-hydroxypyrrolidine-2-carboxamido)methyl)-5-(4-methylthiazol-5-yl)phenoxy)ethoxy)ethoxy)ethoxy)ethyl)carbamate]
10 | < 50 nM | C[C@H]1C=C2C=C[C@H](C)[C@H](CC[C@@H]3C[C@@H](O)CC(=O)O3)[C@H]2[C@@H](OC(=O)NCCOCCOCC(=O)Nc2cccc3c2C(=O)N(C2CCC(=O)NC2=O)C3=O)C1 (stereo partly drawn) [Compound 143, (1S,3R,7S,8S,8aR)-8-(2-((2R,4R)-4-hydroxy-6-oxotetrahydro-2H-pyran-2-yl)ethyl)-3,7-dimethyl-1,2,3,7,8,8a-hexahydronaphthalen-1-yl (2-(2-(2-((2-(2,6-dioxopiperidin-3-yl)-1,3-dioxoisoindolin-4-yl)amino)-2-oxoethoxy)ethoxy)ethyl)carbamate]

Reference: patent US12479840B2, “HMG-CoA reductase degradation inducing compound” (Uppthera, priority 2020, dated 2025)
